According to ChEMBL document CHEMBL5029163, “Enhancing the Pharmacokinetic Profile of Interleukin 2 through Site-Specific Conjugation to a Selective Small-Molecule Transthyretin Ligand” (J Med Chem, 2021):
Active and inactive are the calls of the source. No cut-off for these calls is given here.

Tests used:
Transthyretin [1] = target: T1, Transthyretin (Homo sapiens, UniProt P02766); test: Binding affinity to human TTR assessed as binding constant in PBS buffer at pH 7.4 measured after 20 mins fluorescence polarization assay
Transthyretin [2] = target: T1, Transthyretin; test: Binding affinity to human TTR in human serum assessed as target occupancy at 10 uM measured every 15 mins for 6 hrs by fluorescent probe exclusion selectivity assay; assay type: cell-free
[3] = target: Interleukin-2 (Homo sapiens) (UniProt P60568); test: Induction of stability of human recombinant interleukin 2 assessed as binding affinity to human TTR in human serum by measuring target occupancy at 10 uM measured every 15 mins for 6 hrs by fluorescent probe exclusion selectivity assay; assay type: cell-free
[4] = target: Interleukin-2 (Homo sapiens) (UniProt P60568); test: Induction of stability of human recombinant interleukin 2 assessed as half life in Sprague-Dawley rat plasma at 0.8 mg/kg, iv measured up to 24 hrs by ELISA (Rvb= 1.26+/-0.18 hrs); assay type: organism-based; settings: time hrs <=24
[5] = target: Interleukin-2 (Homo sapiens) (UniProt P60568); test: Induction of stability of human recombinant interleukin 2 assessed as mean residence time in Sprague-Dawley rat at 0.8 mg/kg, iv measured up to 24 hrs by ELISA (Rvb= 1.04+/-0.07 hrs); assay type: organism-based; settings: time hrs <=24
[6] = target: Interleukin-2 (Homo sapiens) (UniProt P60568); test: Induction of stability of human recombinant interleukin 2 assessed as effect on mouse CTLL-2 cell proliferation in presence of TTR measured after 48 hrs by WST-1 assay

Chain of Interleukin-2 (Homo sapiens) (P60568 whole entry): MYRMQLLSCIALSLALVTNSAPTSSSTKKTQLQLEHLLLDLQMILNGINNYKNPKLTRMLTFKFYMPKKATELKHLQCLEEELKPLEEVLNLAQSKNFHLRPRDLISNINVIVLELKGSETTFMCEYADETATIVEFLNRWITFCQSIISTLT

Kd (Transthyretin [1]): 516 nM
Occ (Transthyretin [2]): 51.8%
Occ [3]: 52.6%
T1/2 [4]: 5.22 h
MRT [5]: 8.76 h
Activity [6]: inactive
SMILES: Cc1n[nH]c(C)c1CCCOc1cc(OCCCc2cn(CCOCCOCCOCCOCCNC(=O)C3CCC(CN4C(=O)C=CC4=O)CC3)nn2)cc(C(=O)O)c1 (stereo unspecified)
